Measurements reported in the supplement of paper PMC10307832.

Tests used:
Assay in all cases: relative viability (nuclei count vs DMSO), 5 days (fraction); higher = more cells survive
201T = tested on: 201T
Procedure, shortened: (§1)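 Cells from lung cancer lines were seeded into 1536-well plates and, one day later, dosed by pin tool. Treatments were either a single drug or a fixed dose of an anchor drug with five library-drug doses (not always all listed) in √10 steps. After 5 days, nuclei were stained in a one-step fixation (final 0.05% Triton X-100, 1% formaldehyde, 1 ug/ml Hoechst) and counted on 4× images, and relative viability is the treated-to-vehicle nuclei ratio, as the median of duplicate plates.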

BEN = tested on: BEN
Procedure, shortened: as §1

COR-L 105 = tested on: COR-L 105
Procedure, shortened: as §1

EKVX = tested on: EKVX
Procedure, shortened: as §1

EPLC-272H = tested on: EPLC-272H
Procedure, shortened: as §1

H3255 = tested on: H3255
Procedure, shortened: as §1

HCC-44 = tested on: HCC-44
Procedure, shortened: as §1

HCC-827 = tested on: HCC-827
Procedure, shortened: as §1

HOP-62 = tested on: HOP-62
Procedure, shortened: as §1

LCLC-97TM1 = tested on: LCLC-97TM1
Procedure, shortened: as §1

LOU-NH91 = tested on: LOU-NH91
Procedure, shortened: as §1

LU99A = tested on: LU99A
Procedure, shortened: as §1

NCI-H1395 = tested on: NCI-H1395
Procedure, shortened: as §1

NCI-H1437 = tested on: NCI-H1437
Procedure, shortened: as §1

NCI-H1666 = tested on: NCI-H1666
Procedure, shortened: as §1

NCI-H1975 = tested on: NCI-H1975
Procedure, shortened: as §1

NCI-H2085 = tested on: NCI-H2085
Procedure, shortened: as §1

NCI-H2087 = tested on: NCI-H2087
Procedure, shortened: as §1

NCI-H358 = tested on: NCI-H358
Procedure, shortened: as §1

NCI-H647 = tested on: NCI-H647
Procedure, shortened: as §1

PC-3 [JPC-3] = tested on: PC-3 [JPC-3]
Procedure, shortened: as §1

SW 1573 = tested on: SW 1573
Procedure, shortened: as §1

Question: Which relative viability (201T; first compound 0.01 µM) does the source give for `NC(=O)Nc1cc(-c2cccc(F)c2)sc1C(=O)N[C@H]1CCCNC1` [AZD7762] + CS(=O)(=O)CCNCc1ccc(-c2ccc3ncnc(Nc4ccc(OCc5cccc(F)c5)c(Cl)c4)c3c2)o1 [Lapatinib] (partner 2 µM) here?
Answer: 1.03

Question: And the relative viability (201T; first compound 0.03162 µM)?
Answer: 0.99

Question: And the relative viability (201T; first compound 0.1 µM)?
Answer: 1.03

Question: And the relative viability (201T; first compound 0.3162 µM)?
Answer: 1.15

Question: And the relative viability (201T; first compound 1 µM)?
Answer: 1.15

Question: And the relative viability (BEN; first compound 0.01 µM)?
Answer: 0.788

Question: And the relative viability (BEN; first compound 0.03162 µM)?
Answer: 0.623

Question: And the relative viability (BEN; first compound 0.1 µM)?
Answer: 0.566

Question: And the relative viability (BEN; first compound 0.3162 µM)?
Answer: 0.833

Question: And the relative viability (BEN; first compound 1 µM)?
Answer: 0.488

Question: What about the relative viability (COR-L 105; first compound 0.01 µM) of the same molecule?
Answer: 0.413

Question: What about the relative viability (COR-L 105; first compound 0.03162 µM) of the same molecule?
Answer: 0.353

Question: What about the relative viability (COR-L 105; first compound 0.1 µM) of the same molecule?
Answer: 0.254

Question: What about the relative viability (COR-L 105; first compound 0.3162 µM) of the same molecule?
Answer: 0.332

Question: What about the relative viability (COR-L 105; first compound 1 µM) of the same molecule?
Answer: 0.282

Question: What about the relative viability (EKVX; first compound 0.01 µM) of the same molecule?
Answer: 0.204

Question: What about the relative viability (EKVX; first compound 0.03162 µM) of the same molecule?
Answer: 0.232

Question: And the relative viability (EKVX; first compound 0.1 µM)?
Answer: 0.206

Question: And the relative viability (EKVX; first compound 0.3162 µM)?
Answer: 0.253

Question: And the relative viability (EKVX; first compound 1 µM)?
Answer: 0.166

Question: What about the relative viability (EPLC-272H; first compound 0.01 µM) of the same molecule?
Answer: 0.875

Question: And the relative viability (EPLC-272H; first compound 0.03162 µM)?
Answer: 1.19

Question: And the relative viability (EPLC-272H; first compound 0.1 µM)?
Answer: 0.846

Question: What about the relative viability (EPLC-272H; first compound 0.3162 µM) of the same molecule?
Answer: 0.967

Question: And the relative viability (EPLC-272H; first compound 1 µM)?
Answer: 0.912

Question: And the relative viability (H3255; first compound 0.01 µM)?
Answer: 0.316

Question: What about the relative viability (H3255; first compound 0.03162 µM) of the same molecule?
Answer: 0.256

Question: What about the relative viability (H3255; first compound 0.1 µM) of the same molecule?
Answer: 0.244

Question: What about the relative viability (H3255; first compound 0.3162 µM) of the same molecule?
Answer: 0.264

Question: And the relative viability (H3255; first compound 1 µM)?
Answer: 0.244

Question: And the relative viability (HCC-44; first compound 0.01 µM)?
Answer: 1.11

Question: And the relative viability (HCC-44; first compound 0.03162 µM)?
Answer: 0.952

Question: What about the relative viability (HCC-44; first compound 0.1 µM) of the same molecule?
Answer: 0.998

Question: And the relative viability (HCC-44; first compound 0.3162 µM)?
Answer: 0.932

Question: What about the relative viability (HCC-44; first compound 1 µM) of the same molecule?
Answer: 0.99

Question: And the relative viability (HCC-827; first compound 0.01 µM)?
Answer: 0.202

Question: What about the relative viability (HCC-827; first compound 0.03162 µM) of the same molecule?
Answer: 0.177

Question: What about the relative viability (HCC-827; first compound 0.1 µM) of the same molecule?
Answer: 0.189

Question: What about the relative viability (HCC-827; first compound 0.3162 µM) of the same molecule?
Answer: 0.178

Question: What about the relative viability (HCC-827; first compound 1 µM) of the same molecule?
Answer: 0.197

Question: And the relative viability (HOP-62; first compound 0.01 µM)?
Answer: 0.993

Question: What about the relative viability (HOP-62; first compound 0.03162 µM) of the same molecule?
Answer: 1.06

Question: What about the relative viability (HOP-62; first compound 0.1 µM) of the same molecule?
Answer: 1.27

Question: And the relative viability (HOP-62; first compound 0.3162 µM)?
Answer: 0.989

Question: And the relative viability (HOP-62; first compound 1 µM)?
Answer: 0.565

Question: What about the relative viability (LCLC-97TM1; first compound 0.01 µM) of the same molecule?
Answer: 0.834

Question: And the relative viability (LCLC-97TM1; first compound 0.03162 µM)?
Answer: 1.13

Question: And the relative viability (LCLC-97TM1; first compound 0.1 µM)?
Answer: 0.821

Question: And the relative viability (LCLC-97TM1; first compound 0.3162 µM)?
Answer: 0.555

Question: And the relative viability (LCLC-97TM1; first compound 1 µM)?
Answer: 0.609

Question: What about the relative viability (LOU-NH91; first compound 0.01 µM) of the same molecule?
Answer: 0.792

Question: What about the relative viability (LOU-NH91; first compound 0.03162 µM) of the same molecule?
Answer: 0.791

Question: And the relative viability (LOU-NH91; first compound 0.1 µM)?
Answer: 0.753

Question: What about the relative viability (LOU-NH91; first compound 0.3162 µM) of the same molecule?
Answer: 0.572

Question: And the relative viability (LOU-NH91; first compound 1 µM)?
Answer: 0.639

Question: What about the relative viability (LU99A; first compound 0.01 µM) of the same molecule?
Answer: 0.954

Question: What about the relative viability (LU99A; first compound 0.03162 µM) of the same molecule?
Answer: 1.1

Question: What about the relative viability (LU99A; first compound 0.1 µM) of the same molecule?
Answer: 0.952

Question: What about the relative viability (LU99A; first compound 0.3162 µM) of the same molecule?
Answer: 0.789

Question: And the relative viability (LU99A; first compound 1 µM)?
Answer: 0.416

Question: What about the relative viability (NCI-H1395; first compound 0.01 µM) of the same molecule?
Answer: 1.04

Question: What about the relative viability (NCI-H1395; first compound 0.03162 µM) of the same molecule?
Answer: 1.06

Question: What about the relative viability (NCI-H1395; first compound 0.1 µM) of the same molecule?
Answer: 1.05

Question: What about the relative viability (NCI-H1395; first compound 0.3162 µM) of the same molecule?
Answer: 0.543

Question: And the relative viability (NCI-H1395; first compound 1 µM)?
Answer: 0.362

Question: What about the relative viability (NCI-H1437; first compound 0.01 µM) of the same molecule?
Answer: 0.809

Question: What about the relative viability (NCI-H1437; first compound 0.03162 µM) of the same molecule?
Answer: 0.647

Question: What about the relative viability (NCI-H1437; first compound 0.1 µM) of the same molecule?
Answer: 0.875

Question: And the relative viability (NCI-H1437; first compound 0.3162 µM)?
Answer: 0.841

Question: What about the relative viability (NCI-H1437; first compound 1 µM) of the same molecule?
Answer: 0.526

Question: What about the relative viability (NCI-H1666; first compound 0.01 µM) of the same molecule?
Answer: 0.671

Question: And the relative viability (NCI-H1666; first compound 0.03162 µM)?
Answer: 0.821

Question: And the relative viability (NCI-H1666; first compound 0.1 µM)?
Answer: 0.73

Question: And the relative viability (NCI-H1666; first compound 0.3162 µM)?
Answer: 0.629

Question: And the relative viability (NCI-H1666; first compound 1 µM)?
Answer: 0.708

Question: What about the relative viability (NCI-H1975; first compound 0.01 µM) of the same molecule?
Answer: 0.89

Question: What about the relative viability (NCI-H1975; first compound 0.03162 µM) of the same molecule?
Answer: 0.831

Question: And the relative viability (NCI-H1975; first compound 0.1 µM)?
Answer: 0.776

Question: What about the relative viability (NCI-H1975; first compound 0.3162 µM) of the same molecule?
Answer: 0.639

Question: And the relative viability (NCI-H1975; first compound 1 µM)?
Answer: 0.398

Question: And the relative viability (NCI-H2085; first compound 0.01 µM)?
Answer: 0.804

Question: What about the relative viability (NCI-H2085; first compound 0.03162 µM) of the same molecule?
Answer: 0.878

Question: What about the relative viability (NCI-H2085; first compound 0.1 µM) of the same molecule?
Answer: 0.873

Question: And the relative viability (NCI-H2085; first compound 0.3162 µM)?
Answer: 0.78

Question: What about the relative viability (NCI-H2085; first compound 1 µM) of the same molecule?
Answer: 0.6

Question: What about the relative viability (NCI-H2087; first compound 0.01 µM) of the same molecule?
Answer: 1.23

Question: What about the relative viability (NCI-H2087; first compound 0.03162 µM) of the same molecule?
Answer: 1.01

Question: And the relative viability (NCI-H2087; first compound 0.1 µM)?
Answer: 1.01

Question: What about the relative viability (NCI-H2087; first compound 0.3162 µM) of the same molecule?
Answer: 1.24

Question: And the relative viability (NCI-H2087; first compound 1 µM)?
Answer: 1.16

Question: What about the relative viability (NCI-H358; first compound 0.01 µM) of the same molecule?
Answer: 0.478

Question: And the relative viability (NCI-H358; first compound 0.03162 µM)?
Answer: 0.537

Question: And the relative viability (NCI-H358; first compound 0.1 µM)?
Answer: 0.497

Question: What about the relative viability (NCI-H358; first compound 0.3162 µM) of the same molecule?
Answer: 0.451

Question: And the relative viability (NCI-H358; first compound 1 µM)?
Answer: 0.327

Question: And the relative viability (NCI-H647; first compound 0.01 µM)?
Answer: 1.14

Question: And the relative viability (NCI-H647; first compound 0.03162 µM)?
Answer: 1.12

Question: What about the relative viability (NCI-H647; first compound 0.1 µM) of the same molecule?
Answer: 0.963

Question: And the relative viability (NCI-H647; first compound 0.3162 µM)?
Answer: 0.519

Question: What about the relative viability (NCI-H647; first compound 1 µM) of the same molecule?
Answer: 0.0944

Question: And the relative viability (PC-3 [JPC-3]; first compound 0.01 µM)?
Answer: 0.473

Question: What about the relative viability (PC-3 [JPC-3]; first compound 0.03162 µM) of the same molecule?
Answer: 0.447

Question: And the relative viability (PC-3 [JPC-3]; first compound 0.1 µM)?
Answer: 0.372

Question: What about the relative viability (PC-3 [JPC-3]; first compound 0.3162 µM) of the same molecule?
Answer: 0.46

Question: What about the relative viability (PC-3 [JPC-3]; first compound 1 µM) of the same molecule?
Answer: 0.432

Question: And the relative viability (SW 1573; first compound 0.01 µM)?
Answer: 1.29

Question: And the relative viability (SW 1573; first compound 0.03162 µM)?
Answer: 1.23

Question: And the relative viability (SW 1573; first compound 0.1 µM)?
Answer: 1.16

Question: What about the relative viability (SW 1573; first compound 0.3162 µM) of the same molecule?
Answer: 1.24

Question: And the relative viability (SW 1573; first compound 1 µM)?
Answer: 1.12
